Experimental data published in US20230141034A1, “ADAMANTANE-1-CARBONYL THIOUREA, AS P2X RECEPTOR ANTAGONIST” (COMSATS UNIVERSITY ISLAMABAD, priority 2021, published 2023).

Experiments:
[1] = system: human 1321N1 Astrocytoma cell line; assay: MTT cytotoxicity assay, human 1321N1 astrocytoma cell line; type: cell-based; conditions: final concentration of 50 μM
Method: (§1) Cellular safety profiling of adamantane thioureas were done through MTT assay. All compounds were analyzed for toxicity at final concentration of 50 μM. […] Toxicity was determined against two cancer cell lines including human 1321N1 Astrocytoma cell line, HeLa cell line and a normal HEK-293 cell line.
(§2) c. Cell Viability Assay (MTT Assay)
(§3) After 24 h of incubation at 37° C. in CO2 incubator, culture media will be replaced with serum-free media along with test compounds and re-incubate. After 24 h, media will be removed and add 100 μL of MTT reagent (0.5-5 mg/mL) and will be incubated for a further 4 h, at 37° C. Absorbance will be measured at 570 and 630 nm to calculate cell viability.

HEK-293 cell line = assay: MTT cytotoxicity assay, HEK-293 cell line; type: cell-based; conditions: final concentration of 50 μM
Method: as §1, §2, §3

HeLa cell line = assay: MTT cytotoxicity assay, HeLa cell line; type: cell-based; conditions: final concentration of 50 μM
Method: as §1, §2, §3

h-P2X7 [2] = molecular target: T1, h-P2X7 (Homo sapiens, UniProt Q99572); assay: Mode of receptor inhibition, BzATP dose-response curve at h-P2X7R; type: cell-based; parameters: expressed in transfected cells; host or cells: human 1321N1 astrocytoma cells
T1 sequence (Q99572 1-595): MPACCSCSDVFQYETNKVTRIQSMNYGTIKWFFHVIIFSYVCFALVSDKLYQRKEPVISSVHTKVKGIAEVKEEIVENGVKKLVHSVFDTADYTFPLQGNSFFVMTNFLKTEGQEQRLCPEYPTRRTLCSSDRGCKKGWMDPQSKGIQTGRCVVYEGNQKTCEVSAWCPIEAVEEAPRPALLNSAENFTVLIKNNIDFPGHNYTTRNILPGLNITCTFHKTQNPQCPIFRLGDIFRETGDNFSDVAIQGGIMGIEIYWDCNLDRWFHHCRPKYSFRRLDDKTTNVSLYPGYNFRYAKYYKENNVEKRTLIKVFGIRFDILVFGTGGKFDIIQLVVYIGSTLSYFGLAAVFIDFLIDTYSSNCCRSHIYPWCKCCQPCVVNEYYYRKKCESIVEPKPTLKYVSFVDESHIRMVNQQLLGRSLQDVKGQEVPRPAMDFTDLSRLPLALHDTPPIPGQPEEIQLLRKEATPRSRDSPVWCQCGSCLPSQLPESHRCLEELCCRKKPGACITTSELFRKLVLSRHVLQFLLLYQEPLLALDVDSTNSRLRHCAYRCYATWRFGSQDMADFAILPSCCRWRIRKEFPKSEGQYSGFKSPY
Method: (§4) Different dilutions of compounds were administered to receptors expressed cell line.

h-P2X2 = molecular target: T2, h-P2X2 (Homo sapiens, UniProt Q9UBL9); assay: Ca2+ flux assay h-P2X2; conditions: for inhibition at 50 µM: read-out: h-P2X2 % Inhibition
T2 sequence (Q9UBL9 1-471): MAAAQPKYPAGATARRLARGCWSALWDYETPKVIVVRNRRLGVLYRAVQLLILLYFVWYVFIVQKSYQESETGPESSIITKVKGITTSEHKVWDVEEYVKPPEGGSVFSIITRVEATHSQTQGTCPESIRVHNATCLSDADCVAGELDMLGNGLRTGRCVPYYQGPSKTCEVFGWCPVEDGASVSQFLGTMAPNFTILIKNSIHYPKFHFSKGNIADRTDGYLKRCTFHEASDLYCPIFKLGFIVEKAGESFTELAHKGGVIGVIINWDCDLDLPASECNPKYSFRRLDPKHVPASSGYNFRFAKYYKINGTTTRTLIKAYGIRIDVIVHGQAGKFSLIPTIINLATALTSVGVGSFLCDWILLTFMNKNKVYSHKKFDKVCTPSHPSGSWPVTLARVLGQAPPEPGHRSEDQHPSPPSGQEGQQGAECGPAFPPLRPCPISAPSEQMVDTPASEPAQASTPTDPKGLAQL
Method: (§5) Compounds were initially analyzed at a final concentration of about 50 μM and percentage of inhibition was calculated.
(§6) Calcium Mobilization Assay to Measure P2X Receptors Response Cell Culture: P2X receptors functions can be analyzed from ATP-induced increase in cytosolic Ca^2+ concentration. Two Ca^2+ chelating dyes, Fura-2 AM and Fluo-4 AM can be used to determine the intracellular Ca^2+ concentration through a fluorescent imaging micro-titer plate reader (BMG Labtech: FLUOstar Galaxy®). Non-transfected human 1321N1 astrocytoma cells, as well as P2X receptors transfected human 1321N1 astrocytoma cells will be cultured in T-75 cm^2 cell culture flask having appropriate cell culture growth media; Dulbecco's Modified Eagle's medium (DMEM) supplemented with 10% fetal bovine serum (FBS), 75 μg/mL of Hygromycin B or human P2X receptors transfected cell lines and 1% pen-strep (antibiotics). Cells will be incubated at 37° C. in 5% CO2 incubator until 80 to 90% cell confluency will be achieved. Cells will be maintained in an exponential growth phase throughout the experiment and closely monitored for contamination.
Measurement of Ca^2+ Flux
(§7) When 1321N1 cells will reach 80 to 90% of confluency, cells will be harvested from T-75 cm^2 flask by trypsinization. After washing the cells with phosphate buffer saline (PBS), cells will be seeded at a density of 20,000 cells/well in black, clear bottom, poly-D-lysine coated 96 well plate. After 16 to 24 h, cell culture media will be removed and add Hank's balanced salt solution (HBSS) containing 3 μM Ca^2+ chelating dyes Fura-2 AM or Fluo-4 AM. After 1 h of incubation at 23° C., the loading dye solution will be removed, and added seven to eight dilutions of test compounds in triplicate format. ATP (at a concentration value of EC80) or buffer will be added and measured the excitation and emission at 340/520 nm and 380/520 nm through FLUOStar Galaxy®. Assay volume for the experiment will be 200 μL. IC50 and EC50 values will be calculated by PRISM 5.0 (GrapgPad, San Diego, Calif., USA) through non-linear regression analysis.

h-P2X7 [3] = molecular target: T1, h-P2X7; assay: Ca2+ flux assay h-P2X7; conditions: for IC50: read-out: h-P2X7 IC50 ± SEM, Ca2+ flux, n = 3
Method: as §5, §6
Measurement of Ca^2+ Flux
as §7

[4] = MTT cytotoxicity assay, human 1321N1 astrocytoma cell line; type: cell-based; conditions: human, 1321N1 astrocytoma cells, final concentration of 50 μM
Method: as §1, §2, §3

[5] = MTT cytotoxicity assay, HEK-293 cell line; type: cell-based; conditions: human, HEK-293 cells, final concentration of 50 μM
Method: as §1, §2, §3

[6] = MTT cytotoxicity assay, HeLa cell line; type: cell-based; conditions: human, HeLa cells, final concentration of 50 μM
Method: as §1, §2, §3

h-P2X4 [7] = molecular target: T3, h-P2X4 (Homo sapiens, UniProt Q99571); assay: Ca2+ flux assay h-P2X4; conditions: for IC50: read-out: h-P2X4 IC50 ± SEM, Ca2+ flux, n = 3
T3 sequence (Q99571 1-388): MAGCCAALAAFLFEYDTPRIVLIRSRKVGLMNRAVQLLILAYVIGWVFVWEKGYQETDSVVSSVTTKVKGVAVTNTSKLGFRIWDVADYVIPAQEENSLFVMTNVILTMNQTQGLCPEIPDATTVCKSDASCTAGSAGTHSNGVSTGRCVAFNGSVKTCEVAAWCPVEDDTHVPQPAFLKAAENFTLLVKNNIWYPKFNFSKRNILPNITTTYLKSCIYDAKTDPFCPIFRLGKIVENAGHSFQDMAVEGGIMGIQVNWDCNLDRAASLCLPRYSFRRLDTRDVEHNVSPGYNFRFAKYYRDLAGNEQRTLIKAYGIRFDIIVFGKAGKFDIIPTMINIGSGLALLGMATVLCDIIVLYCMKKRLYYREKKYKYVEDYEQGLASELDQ
Method: as §5, §6
Measurement of Ca^2+ Flux
as §7

h-P2X5 = h-P2X5 (Homo sapiens, UniProt Q93086); assay: Ca2+ flux assay h-P2X5; conditions: read-out: h-P2X5 % Inhibition
Chain of h-P2X5 (Q93086 whole entry): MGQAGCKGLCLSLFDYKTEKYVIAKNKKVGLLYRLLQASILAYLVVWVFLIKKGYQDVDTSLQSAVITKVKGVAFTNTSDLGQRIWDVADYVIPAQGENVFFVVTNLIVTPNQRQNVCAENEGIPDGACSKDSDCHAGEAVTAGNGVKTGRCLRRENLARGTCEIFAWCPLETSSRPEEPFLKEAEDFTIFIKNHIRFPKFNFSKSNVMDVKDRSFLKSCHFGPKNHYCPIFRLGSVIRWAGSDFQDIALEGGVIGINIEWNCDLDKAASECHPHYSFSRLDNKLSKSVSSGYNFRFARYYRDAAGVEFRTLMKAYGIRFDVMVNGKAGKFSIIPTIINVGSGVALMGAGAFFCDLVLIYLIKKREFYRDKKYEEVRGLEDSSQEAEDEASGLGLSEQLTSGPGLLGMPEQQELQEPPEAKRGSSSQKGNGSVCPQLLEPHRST
Method: as §5, §6
Measurement of Ca^2+ Flux
as §7

h-P2X7 [8] = molecular target: T1, h-P2X7; assay: BzATP induced Ethidium Bromide dye-uptake assay (pore formation); type: cell-based; parameters: expressed in transfected cells; host or cells: human 1321N1 astrocytoma cells; conditions: for Emax at 20 µM: read-out: Emax % (at 20 μM inhibitor concentration), BzATP induced Ethidium Bromide dye uptake, 20 μM inhibitor concentration, BzATP without inhibitor = 100; for IC50: serial dilution curves, read-out: IC50 ± SEM, BzATP induced Ethidium Bromide dye uptake
From the text: This is a specific assay to access the activities of P2X7R. Prolong exposure of P2X7R leads to pore formation that results intake of large molecular weight dye through this pore. An inhibitor of P2X7R inhibits this pore formation that confirms the inhibitory potential of compounds.
e. Ethidium Bromide Dye-Uptake Assay for P2X7 Receptors: (Pore Formation)
Human astrocytoma 1321N1 cells stably expressing P2X7 receptors will be seeded in the black wall, clear bottom and poly-D-lysine coated 96 wells plate at a cell density of 20,000 cells/well. After 24 h of incubation, culture medium will be removed, and wash the cells with dye uptake buffer. Cells will be treated with ethidium bromide with the subsequent addition of different concentrations of Bz-ATP to 96 wells plate in triplicate format. […] For screening of P2X7 receptor antagonists, cells will be treated with different concentrations of test compounds for 15 min at 37° C. before the addition of Bz-ATP.

h-P2X4 [9] = molecular target: T3, h-P2X4; assay: Mode of receptor inhibition, ATP dose-response curve at h-P2X4R; type: cell-based; parameters: expressed in transfected cells; host or cells: human 1321N1 astrocytoma cells
Method: as §4

Compound	Human 1321N1 Astrocytoma Cell Line (% cytotoxicity) [1] [%]	HEK-293 Cell Line (% cytotoxicity) (HEK-293 cell line) [%]	HeLa Cell Line (% cytotoxicity) (HeLa cell line) [%]	IC50 (h-P2X7 [3]) [nM]	cytotoxicity at 24 h, 50 µM [4] [%]	cytotoxicity at 24 h, 50 µM [5] [%]	cytotoxicity at 24 h, 50 µM [6] [%]	inhibition at 50 µM (h-P2X2) [%]	inhibition at 50 µM (h-P2X5) [%]	also measured
CC(C)c1cc(Br)c(NC(=O)Nc2cccnc2)c(Br)c1 [BX-430, reference compound]	20.21	2.85	9.12							
Nc1ncnc2c1ncn2[C@@H]1O[C@H](COP(=O)(O)OP(=O)(O)OP(=O)(O)O)[C@@H](OC(=O)c2ccc(C(=O)c3ccccc3)cc2)[C@H]1O [BzATP, reference compound]										EC50 (h-P2X7 [2]; BzATP without inhibitor, read-out: EC50 of BzATP induced response): 7090 nM
Nc1c(S(=O)(=O)O)cc(Nc2ccc(Nc3nc(Cl)nc(Nc4cccc(S(=O)(=O)O)c4)n3)c(S(=O)(=O)O)c2)c2c1C(=O)c1ccccc1C2=O [Reactive Blue 2, reference compound]	20.82	39.89	14.47	2790 ± 220						IC50 (h-P2X2; read-out: h-P2X2 IC50 ± SEM, Ca2+ flux, n = 3): 890 ± 410 nM
O=C(NC(=S)Nc1cccnc1Cl)C12CC3CC(CC(C3)C1)C2 [If, N-((2-chloropyridin-3-yl)carbamothioyl)adamantane-1-carboxamide]				99 ± 70	11.4	4.95	5.21	13.2	25.5	IC50 (h-P2X4 [7]): 1270 ± 110 nM; Emax at 20 µM (h-P2X7 [8]): 47%; IC50 (h-P2X7 [8]): 310 ± 70 nM
Cc1nc(N=Nc2ccc(S(=O)(=O)O)cc2S(=O)(=O)O)c(COP(=O)(O)O)c(C=O)c1O [PPADS, reference compound]	19.02	42.58	17.92							
CC(C)c1ccc(NC(=S)NC(=O)C23CC4CC(CC(C4)C2)C3)c(Br)c1 [Ip, N-((2-bromo-4-isopropylphenyl)carbamothioyl)adamantane-1-carboxamide]					19.7	20.6	23.5	30.2	12.4	IC50 (h-P2X4 [7]): 40 ± 10 nM; inhibition at 50 µM (h-P2X7 [3]; read-out: h-P2X7 % Inhibition): 42.5%; mechanism of receptor inhibition (h-P2X4 [9]; h-P2X4R expressed cell line, different dilutions of compound): negative allosteric modulators
O=C(NC(=S)Nc1cccc2cccnc12)C12CC3CC(CC(C3)C1)C2 [Io, N-(quinolin-8-ylcarbamothioyl)adamantane-1-carboxamide]				73 ± 40	9.12	17.6	6.22	15.3	31.5	inhibition at 50 µM (h-P2X4 [7]; read-out: h-P2X4 % Inhibition): 25.1%; mechanism of receptor inhibition (h-P2X7 [2]; h-P2X7R expressed cell line, different dilutions of compound): negative allosteric modulators; Emax at 20 µM (h-P2X7 [8]): 70%; IC50 (h-P2X7 [8]): 136 ± 20 nM
Nc1ncnc2c1ncn2[C@@H]1O[C@H](COP(=O)(O)OP(=O)(O)OP(=O)(O)O)[C@@H](O)[C@H]1O [ATP, reference compound]										EC50 (h-P2X4 [9]; ATP without inhibitor, read-out: EC50 of ATP induced response): 5450 nM
